Among the test systems are UO-31; SNB-75; UACC-62; U-251; HCT-116; COLO 205; IGROV-1; K562; NCI-H226; SK-MEL-5; NCI-H522; SK-OV-3; ACHN; HL-60; SK-MEL-28; HCC 2998; OVCAR-3; NCI-H460; HCT-15; RXF 393.
What all share (test): NCI tumour cell line growth inhibition, 48 h

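Cells were grown in 96-well plates and exposed to each compound for 48 hours at five concentrations; endpoints were interpolated linearly between bracketing concentrations, or set to the highest concentration if not reached. GI50 is the concentration that inhibits growth by half.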 The source made the active and inactive calls. Cut-off read from the data, not from the text of the source: active = GI50 up to about 1.1 µM and inactive = higher. Where only a bound is given, the exact number is not on record here.

As for `COc1ccc(/C=N/n2c(C)nc3c(sc(=S)n3-c3ccccc3)c2=O)cc1`, the GI50 in the test on UO-31 was > 100 µM (inactive); in the test with SNB-75, 14.4 µM (inactive); in the test on UACC-62, 60.5 µM (inactive); in the test with U-251, > 100 µM (inactive); in the test with HCT-116 it was > 100 µM (inactive); in the test with COLO 205, > 100 µM (inactive). Also, the GI50 in the test with IGROV-1 was > 100 µM (inactive); in the test on K562, 25.6 µM (inactive); in the test on NCI-H226 it was > 100 µM (inactive); in the test with SK-MEL-5, > 100 µM (inactive); with NCI-H522 it was 21.4 µM (inactive); with SK-OV-3, > 100 µM (inactive). The GI50 in the test with ACHN is > 100 µM (inactive); in the test on HL-60, 21.6 µM (inactive); in the test on SK-MEL-28, 43.7 µM (inactive); with HCC 2998, > 100 µM (inactive); in the test on OVCAR-3 it was 45.5 µM (inactive); with NCI-H460 it was 31.6 µM (inactive).

As to `COc1ccc(C(CC(=O)c2ccc(O)cc2)C(C(=O)c2ccc(O)cc2)C(c2ccc(OC)cc2)C2C(=O)NC(=S)NC2=O)cc1` (centres undefined), the GI50 with UO-31 is 17.5 µM (inactive); in the test with SNB-75, 25.8 µM (inactive); in the test with UACC-62, 17.7 µM (inactive); in the test on U-251, 24.5 µM (inactive); with HCT-116, 16.8 µM (inactive); in the test with COLO 205, 16 µM (inactive). Also, the GI50 with IGROV-1 is 15.5 µM (inactive); in the test with K562, 30.5 µM (inactive); in the test with NCI-H226 it was 18.7 µM (inactive); in the test with SK-MEL-5 it was 21.5 µM (inactive); in the test with NCI-H522 it was 14.9 µM (inactive); with ACHN it was 19.7 µM (inactive). Moreover, the GI50 in the test on HL-60 was 32.1 µM (inactive); in the test with SK-MEL-28, 16.2 µM (inactive); with HCT-15, 21.2 µM; with NCI-H460, 18.1 µM (inactive).

For the molecule `COC1OC(CS(=O)(=O)O)C(O)C(O)C1O` (centres undefined), the GI50 with UO-31, in the test on SNB-75, in the test with UACC-62, in the test with U-251, in the test with HCT-116 and in the test with COLO 205 was > 100 µM (inactive) throughout. The GI50 with IGROV-1, in the test on K562, in the test with NCI-H226, in the test on SK-MEL-5, in the test with SK-OV-3 and with HL-60 was > 100 µM (inactive) throughout. Moreover, the GI50 was > 100 µM (inactive) with SK-MEL-28; > 100 µM (inactive) in the test with HCC 2998; > 100 µM (inactive) in the test with OVCAR-3; above 100 µM with HCT-15; > 100 µM (inactive) in the test on RXF 393; > 100 µM (inactive) in the test on NCI-H460.

As for `O=C1CCC(c2ccccc2)=NN1c1nsc2ccccc12`, the GI50 with UO-31 was > 100 µM (inactive); with SNB-75, 7.21 µM (inactive); in the test with UACC-62, > 100 µM (inactive); in the test on U-251, > 100 µM (inactive); with HCT-116, 99.3 µM (inactive); with COLO 205, > 100 µM (inactive). Besides, the GI50 in the test with IGROV-1 is 97.9 µM (inactive); in the test on K562, 74 µM (inactive); in the test on SK-MEL-5, > 100 µM (inactive); in the test with ACHN, > 100 µM (inactive); in the test on HL-60 it was > 100 µM (inactive); with SK-MEL-28, > 100 µM (inactive). Further, the GI50 is 60.8 µM (inactive) in the test on HCC 2998; 83.8 µM (inactive) with OVCAR-3; above 100 µM with HCT-15; > 100 µM (inactive) in the test on RXF 393; 47.9 µM (inactive) in the test on NCI-H460.

As for `CC(C)OP(=O)(OC(C)C)c1nn(-c2ccc([N+](=O)[O-])cc2)c(=N)s1`, the GI50 with UO-31 was 60.4 µM (inactive); in the test on SNB-75, 15 µM (inactive); in the test on UACC-62, > 100 µM (inactive); in the test with U-251 it was > 100 µM (inactive); with HCT-116, > 100 µM (inactive); in the test on COLO 205, > 100 µM (inactive). Moreover, the GI50 in the test on IGROV-1 is > 100 µM (inactive); in the test with K562, 61.8 µM (inactive); in the test on SK-MEL-5, 69.5 µM (inactive); in the test on NCI-H522, 47.2 µM (inactive); in the test with SK-OV-3 it was > 100 µM (inactive); in the test with ACHN, 80.5 µM (inactive). In addition, the GI50 in the test with HL-60 was 68.1 µM (inactive); with SK-MEL-28, > 100 µM (inactive); in the test on HCC 2998, 65.5 µM (inactive); in the test with OVCAR-3, 77.8 µM (inactive); in the test with HCT-15 it was above 100 µM; in the test with NCI-H460, > 100 µM (inactive).

As for `Cc1[nH]c2ncn(/N=C/c3ccccc3O)c(=N)c2c1Cc1ccccc1`, the GI50 in the test with UO-31 was 43.1 µM (inactive); in the test on SNB-75, 91 µM (inactive); with UACC-62, 37.2 µM (inactive); with U-251 it was 19.6 µM (inactive); with HCT-116, 43.4 µM (inactive); in the test on COLO 205, > 100 µM (inactive). In addition, the GI50 is > 100 µM (inactive) with IGROV-1; 11.3 µM (inactive) with K562; 75.5 µM (inactive) in the test on NCI-H226; > 100 µM (inactive) in the test on SK-OV-3; 54.2 µM (inactive) in the test with ACHN; 23.6 µM (inactive) in the test on HL-60. For the same molecule, the GI50 is 42.3 µM (inactive) with SK-MEL-28; 28.9 µM (inactive) with HCC 2998; 24.2 µM (inactive) in the test on OVCAR-3; 46.3 µM in the test on HCT-15; > 100 µM (inactive) in the test with RXF 393; 66.7 µM (inactive) with NCI-H460.

Take `COc1cc(C2C(=O)C(Cl)N2Nc2nc(C)cc(O)n2)cc(OC)c1OC` (centres undefined): the GI50 is 13.4 µM (inactive) with UO-31; 2.33 µM (inactive) in the test on SNB-75; > 10 µM (inactive) with UACC-62; 13.3 µM (inactive) in the test on U-251; 16.2 µM (inactive) in the test with HCT-116; > 10 µM (inactive) in the test on COLO 205. The GI50 was 10.1 µM (inactive) in the test with IGROV-1; 9.55 µM (inactive) in the test with K562; 22.1 µM (inactive) in the test on NCI-H226; 12.9 µM (inactive) in the test with SK-MEL-5; 11.1 µM (inactive) in the test on ACHN; 9.84 µM (inactive) in the test on HL-60. Further, the GI50 in the test with SK-MEL-28 is 17 µM (inactive); in the test on HCC 2998, 12.9 µM (inactive); with OVCAR-3, 4.91 µM (inactive); in the test with HCT-15 it was 11.5 µM; in the test with RXF 393, 12.3 µM (inactive); in the test on NCI-H460, 9.35 µM (inactive).

As for `CO[C@H]1C=C[C@@]23c4cc5c(cc4CO[C@]2(O)CN(C)[C@H]3C1)OCO5`, the GI50 in the test on UO-31, in the test with SNB-75, in the test on UACC-62, with U-251, in the test on HCT-116 and with COLO 205 was > 100 µM (inactive) each time. Further, the GI50 with IGROV-1, in the test on K562, with NCI-H226, in the test with SK-MEL-5, with NCI-H522 and with SK-OV-3 was > 100 µM (inactive) each time. Moreover, the GI50 with ACHN is > 100 µM (inactive); in the test with HL-60, > 100 µM (inactive); in the test on SK-MEL-28 it was > 100 µM (inactive); in the test on HCC 2998 it was > 100 µM (inactive); in the test with OVCAR-3, > 100 µM (inactive); in the test with HCT-15, above 100 µM. Further, in the test with NCI-H460, the GI50 was > 100 µM (inactive).

Consider `CC(SC(=S)N1CCOCC1)C(=O)Nc1nnc(-c2ccc(Cl)cc2)o1` (centres undefined), for which the GI50 was 22.4 µM (inactive) in the test with UO-31; > 100 µM (inactive) in the test with SNB-75; 50.6 µM (inactive) in the test with UACC-62; 35 µM (inactive) with U-251; 23.8 µM (inactive) in the test with HCT-116; 38.4 µM (inactive) in the test on COLO 205. The GI50 with IGROV-1 was 33.8 µM (inactive); in the test on NCI-H226 it was 67.8 µM (inactive); with SK-MEL-5, 31.6 µM (inactive); in the test with SK-OV-3, 67.3 µM (inactive); with ACHN, 51.2 µM (inactive); with SK-MEL-28, > 100 µM (inactive). In addition, the GI50 with HCC 2998 is > 100 µM (inactive); with OVCAR-3 it was 25.8 µM (inactive); in the test on HCT-15, 20.7 µM; in the test on RXF 393, > 100 µM (inactive); in the test with NCI-H460 it was 35.2 µM (inactive).

Regarding `Cc1ccc(CCC(=O)C(=O)O)s1`, the GI50 was > 100 µM (inactive) in the test with UO-31; > 100 µM (inactive) in the test on SNB-75; 19.4 µM (inactive) with UACC-62; 81.7 µM (inactive) in the test on U-251; 41 µM (inactive) in the test on HCT-116; > 100 µM (inactive) in the test with COLO 205. For the same molecule, the GI50 with IGROV-1, in the test with K562, in the test with SK-MEL-5, in the test on NCI-H522, in the test with SK-OV-3 and in the test with ACHN was > 100 µM (inactive) throughout. Also, the GI50 in the test on HL-60 is > 100 µM (inactive); in the test on SK-MEL-28 it was > 100 µM (inactive); in the test on HCC 2998, > 100 µM (inactive); with OVCAR-3, > 100 µM (inactive); in the test on HCT-15, above 100 µM; in the test on NCI-H460, > 100 µM (inactive).

For `O=c1ccc2cc3ccc4cccc5ccc(c2o1)c3c45`, the GI50 in the test with UO-31 was 14.3 µM (inactive); with SNB-75, 24.7 µM (inactive); with UACC-62, 47 µM (inactive); in the test with U-251, 13.1 µM (inactive); in the test on COLO 205, > 100 µM (inactive); with IGROV-1, > 100 µM (inactive). The GI50 is > 100 µM (inactive) in the test with K562; 19.7 µM (inactive) with NCI-H226; 40.4 µM (inactive) in the test with SK-MEL-5; 25.9 µM (inactive) in the test with NCI-H522; 13.6 µM (inactive) in the test on SK-OV-3; 12.5 µM (inactive) with ACHN. In addition, the GI50 with HL-60 is > 100 µM (inactive); in the test on SK-MEL-28 it was > 100 µM (inactive); in the test with OVCAR-3, > 10 µM (inactive); with HCT-15, above 100 µM; in the test with NCI-H460 it was 13.1 µM (inactive).

Values taken from ChEMBL document CHEMBL1201862, “PubChem BioAssay data set” (2004).
